From ChEMBL document CHEMBL3046642, “17-Oximino-5-androsten-3-yl esters: synthesis, antiproliferative activity, acute toxicity, and effect on serum androgen level” (Med Chem Res, 2011)
pIC50: −log10 of the molar value. The source made the active and inactive calls. No cut-off for these calls is given here.

Experiments:
Rattus norvegicus = test: Inhibition of 5alpha-reductase in Rattus norvegicus Sprague-Dawley (rat) assessed as increase in serum testosterone at 40 mg/kg, ip after 6 hr by ELISA; assay type: functional, organism-based; parameters: dose 40 mg/kg
[1] = Cytotoxicity against Mus musculus Balb/c (mouse) macrophages after 24 hr by MTT assay; assay type: cell-based, Macrophage; conditions: read-out: LC50
DU-145 [2] = test: Cytotoxicity against Homo sapiens (human) DU145 cells after 48 hr by MTT assay; assay type: functional, cell-based; conditions: for pIC50: Homo sapiens, DU-145, 48 h, read-out: IC50
DU-145 [3] = test: Growth inhibition of Homo sapiens (human) DU145 cells at 5 ug/ml after 48 hr by MTT assay; assay type: functional; conditions: for inhibition of growth at 5 µg/mL: DU-145, 48 h, read-out: GI
DU-145 [4] = test: Growth inhibition of Homo sapiens (human) DU145 cells at 1 ug/ml after 48 hr by MTT assay; assay type: functional; conditions: for inhibition of growth at 1 µg/mL: DU-145, 48 h, read-out: GI
DU-145 [5] = test: Growth inhibition of Homo sapiens (human) DU145 cells at 2 ug/ml after 48 hr by MTT assay; assay type: functional; conditions: for inhibition of growth at 2 µg/mL: DU-145, 48 h, read-out: GI
DU-145 [6] = test: Growth inhibition of Homo sapiens (human) DU145 cells at 0.5 ug/ml after 48 hr by MTT assay; assay type: functional; conditions: for inhibition of growth at 0.5 µg/mL: DU-145, 48 h, read-out: GI
DU-145 [7] = test: Growth inhibition of Homo sapiens (human) DU145 cells at 0.01 ug/ml after 48 hr by MTT assay; assay type: functional; conditions: for inhibition of growth at 0.01 µg/mL: DU-145, 48 h, read-out: GI

SMILES	inhibition (Rattus norvegicus)	CC50 at 24 h [1] [µM]	pIC50 (DU-145 [2])	growth inhibition (GI) (DU-145 [3])	growth inhibition (GI) (DU-145 [4])	growth inhibition (GI) (DU-145 [5])	growth inhibition (GI) (DU-145 [6])	growth inhibition (GI) (DU-145 [7])	inhibition of growth at 5 µg/mL (DU-145 [3]) [%]	inhibition of growth at 1 µg/mL (DU-145 [4]) [%]	inhibition of growth at 2 µg/mL (DU-145 [5]) [%]	inhibition of growth at 0.5 µg/mL (DU-145 [6]) [%]	inhibition of growth at 0.01 µg/mL (DU-145 [7]) [%]	IC50 (DU-145 [2]; du-145)
C[C@]12CC[C@H](OC(=O)Cc3ccccc3)CC1=CC[C@@H]1[C@@H]2CC[C@]2(C)/C(=N/O)CC[C@@H]12	Active	11.8	5.19	inactive	inactive	inactive	inactive	inactive						
C[C@]12CC[C@H](OC(=O)c3ccc(O)cc3)CC1=CC[C@@H]1[C@@H]2CC[C@]2(C)/C(=N/O)CC[C@@H]12	inactive	22	5.54						91.5					
C[C@]12CC[C@H](OC(=O)CCl)CC1=CC[C@@H]1[C@@H]2CC[C@]2(C)/C(=N/O)CC[C@@H]12	Active	28	5.32						59.2	56	56	55	53	
C[C@]12CC[C@H](OC(=O)COc3ccccc3)CC1=CC[C@@H]1[C@@H]2CC[C@]2(C)/C(=N/O)CC[C@@H]12	Active	89	5.20											
Cc1ccc(C(=O)O[C@H]2CC[C@@]3(C)C(=CC[C@@H]4[C@@H]3CC[C@]3(C)/C(=N/O)CC[C@@H]43)C2)cc1	Active	22	5.64						92.9					
C[C@]12CC[C@H](OC(=O)c3ccccc3)CC1=CC[C@@H]1[C@@H]2CC[C@]2(C)/C(=N/O)CC[C@@H]12	Active	89.4	5.42						91.1					
CC(C)(C)NC(=O)[C@H]1CC[C@H]2[C@@H]3CC[C@H]4NC(=O)C=C[C@]4(C)[C@H]3CC[C@]12C [FINASTERIDE]	Active	28.2							78.5		36		5	
C[C@]12CC[C@H](O)CC1=CC[C@@H]1[C@@H]2CC[C@]2(C)/C(=N/O)CC[C@@H]12	Active			inactive	inactive	inactive	inactive	inactive						Not Active
C[C@]12CC[C@H](OC(=O)c3ccc([N+](=O)[O-])cc3)CC1=CC[C@@H]1[C@@H]2CC[C@]2(C)/C(=N/O)CC[C@@H]12	Active	19.5	5.51						81.5					
COc1ccc(C(=O)O[C@H]2CC[C@@]3(C)C(=CC[C@@H]4[C@@H]3CC[C@]3(C)/C(=N/O)CC[C@@H]43)C2)cc1	inactive	14	5.27						69.5	59.2	65.6	51.4	30.7	
C[C@]12CC[C@H](OC(=O)c3ccc(N)cc3)CC1=CC[C@@H]1[C@@H]2CC[C@]2(C)/C(=N/O)CC[C@@H]12	Active	29.4	5.43						91					
C[C@]12CC[C@H](OC(=O)c3ccc(Cl)cc3)CC1=CC[C@@H]1[C@@H]2CC[C@]2(C)/C(=N/O)CC[C@@H]12	Active	24	5.47						84.5					
